In data set [1] the test system is C. neoformans H99. In words: Antifungal susceptibility testing, CLSI broth microdilution (Example 496/497). The format is cell-based, Cryptococcus neoformans. The note with it: for MIC C. neoformans H99: 50% reduction in fungal growth, 72 h, 35° C.; for MIC: Cryptococcus neoformans, H99, 72 h, read-out: MIC C. neoformans H99. The source says:
(§1) Isolates tested. C. neoformans strains H99, DUMC 118.00, DUMC 158.03 and C. gattii strains R272, and RSA-MW-3515 were obtained from Duke University. C. albicans 90028, A. fumigatus MYA3626, C. neoformans 14116, C. neoformans 76484 and the pathogenic Cryptococcus reference strains panel (ATCC MP-11) were obtained from American Type Culture Collection (ATCC, Manassas, Va., USA). The MP-11 panel consists of strains representing eight molecular types and three subtypes of C. neoformans and C. gattii.
(§2) Antifungal susceptibility testing. To establish antimicrobial activity, broth microdilution susceptibility testing was performed according to Clinical and Laboratory Standards Institute (CLSI) guidelines M27-A3 for yeasts and M38-A2 for molds. Compound 2 and analogs were first diluted in DMSO to obtain intermediate dilutions. These were further diluted in microtiter plates to obtain a final concentration of 2 to 0.002 μg/mL. 1 μl of DMSO was added to “No drug” control wells. The solutions were mixed on a plate shaker for 10 mins and plates incubated at 35° C. for 40 to 48 h (C. albicans, A. fumigatus) and 72 h (C. neoformans). The minimum concentration that led to 50% reduction in fungal growth as compared to the control (with the aid of a reading mirror) was determined as the minimum inhibitory concentration (MIC) for C. albicans and C. neoformans. The minimum concentration that led to shortening of hyphae as compared to hyphal growth in DMSO control wells was determined as the minimum effective concentration (MEC) for A. fumigatus (as read for echinocandins). The use of the MIC and MEC endpoints for Compound 2 against yeasts and molds, respectively has been described previously.
On the technique in general: In broth dilution the organism is exposed to a series of concentrations in liquid medium.

In a further data set the test system is C. gattii WM276. Described as above. The format is cell-based, Cryptococcus gattii. Particulars: 50% reduction in fungal growth.
Description: as §1, §2

The test system of another data set is C. albicans 90028. The data set is described as above. The note with it: MIC, 50% reduction in growth, 40 to 48 h. The format is cell-based, Candida albicans.
Description: as §1, §2

Another data set concerns A. fumigatus MYA3626. The data set is described as above. The format is cell-based, Aspergillus fumigatus. The note with it: MEC, shortening of hyphae, 40 to 48 h.
Description: as §1, §2

For a further data set, the system named is C. neoformans isolates. In words: Activity vs susceptible and FLC non-susceptible/resistant strains, broth microdilution. It is filed as cell-based, Cryptococcus neoformans.
Description: (§3) The activity of Gwt1 inhibitors against susceptible and FLC non-susceptible/resistant strains.
as §1
(§4) Antifungal susceptibility testing. To establish antimicrobial activity, broth microdilution susceptibility testing was performed according to Clinical and Laboratory Standards Institute (CLSI) guidelines M27-A3 for yeasts and M38-A2 for molds. Compound 2 and analogs were first diluted in DMSO to obtain intermediate dilutions. These were further diluted in microtiter plates to obtain a final concentration of 2 to 0.002 μg/mL. 1 μl of DMSO was added to “No drug” control wells. The solutions were mixed on a plate shaker for 10 mins and plates incubated at 35° C. for 40 to 48 h (C. albicans, A. fumigatus) and 72 h (C. neoformans). The minimum concentration that led to 50% reduction in fungal growth as compared to the control (with the aid of a reading mirror) was determined as the minimum inhibitory concentration (MIC) for C. albicans and C. neoformans.

The next data set deals with C. gattii isolates. The description is as above. It is filed as cell-based, Cryptococcus gattii.
Description: as §3, §1, §4

For data set [2], the system named is strains of C. neoformans and C. gattii. Nature of the data set: Activity vs Cryptococcus, summary over the strains tested. The note with it: for MIC90: panel of 18 isolates of C. neoformans and C. gattii. The format is cell-based, Cryptococcus neoformans and Cryptococcus gattii.
Description: as §3, §1, §4

In data set [3] the test system is C. neoformans strain H99. Nature of the data set: Delayed treatment model of cryptococcal meningitis, CD-1 mice. It is filed as in vivo, Cryptococcus neoformans. The note with it: treatment from 24 h after infection, 7 days; prodrug 60 mg/kg IP QD with 100 mg/kg ABT PO; AMB 3 mg/kg IP; n=5. Here is the method:
Infection was initiated on Day 1 and treatment was initiated 24 h later (Day 2) rather than 1 h. Treatments were administered for 7 days (final dose on Day 8) and mice were sacrificed on Day 9 for CFU enumeration.
Delayed treatment model. […] Fungal burden data were log10 transformed and evaluated using Kruskal-Wallis tests with Dunn's Multiple Comparison Test for Post-hoc analysis (Prism 5; GraphPad Software, Inc., San Diego, Calif.). A P value of ≤0.05 is considered statistically significant

Data set [4] concerns C. neoformans US isolates. Particulars: cited from earlier work.
In data set [5] the test system is C. neoformans H99. In words: Synergy with FLC, standard microtiter checkerboard dilution. The note with it: synergy = FICI <0.5, MIC read at 50% inhibition. It is filed as cell-based, Cryptococcus neoformans. As to the method:
Gwt1 inhibitors are synergistic with FLC. […] Importantly, no antagonism was observed.
as §2

Data set [6] relates to 46 strains of C. neoformans. Particulars: global study; cited from earlier work.
The subject of data set [7] is Candida tropicalis strains. The note with it: cited from earlier work.
Another data set deals with strains of C. albicans. The note with it: cited from earlier work.
The conditions of data set [8]: mouse, in vivo; cited from earlier work.
In data set [9] the test system is C. neoformans strain H99. Nature of the data set: Murine model of cryptococcal meningitis, Compound 1 alone and with FLC (no ABT), CD-1 mice. The format is in vivo, Cryptococcus neoformans. The note with it: Compound 1 390 mg/kg PO thrice daily or FLC 80 mg/kg/day IP, 7 days, n=10. As to the method: Treatment was initiated within 1 h after infection.
Mice were weighed daily and observed for acute and chronic adverse symptoms. […] Fungal burden data were log10 transformed and evaluated using Kruskal-Wallis tests with Dunn's Multiple Comparison Test for Post-hoc analysis (Prism 5; GraphPad Software, Inc., San Diego, Calif.).

Converted amounts (≈) assume the structure as drawn.

A word on the MIC: it is the lowest concentration found to suppress growth. The term MIC90 denotes the lowest concentration that inhibits either 90% of growth or 90% of the strains tested, depending on the study. For the molecule `C[C@@H]1[C@H](O)[C@@H](C)/C=C/C=C/C=C/C=C/C=C/C=C/C=C/[C@H](O[C@@H]2O[C@H](C)[C@@H](O)[C@H](N)[C@@H]2O)C[C@@H]2O[C@](O)(C[C@@H](O)C[C@@H](O)[C@H](O)CC[C@@H](O)C[C@@H](O)CC(=O)O[C@H]1C)C[C@H](O)[C@H]2C(=O)O` [AMB, amphotericin B, reference compound], the “MIC C. neoformans H99” value against C. neoformans H99 [1] turned out to be 0.25 µg/mL (≈ 0.271 µM). The “MIC C. gattii WM276” value with C. gattii WM276 came out at 0.25 µg/mL (≈ 0.271 µM). In addition, the “MIC or MEC C. albicans 90028” value in the data set on C. albicans 90028 stood at 1 µg/mL (≈ 1.08 µM). In the data set on A. fumigatus MYA3626, the “MIC or MEC A. fumigatus MYA3626” value came to 1 µg/mL (≈ 1.08 µM). In addition, the MIC with C. neoformans isolates (C. neoformans 14116) amounted to 0.25 µg/mL (≈ 0.271 µM); against C. neoformans isolates (C. neoformans 76484) it was 0.25 µg/mL (≈ 0.271 µM); in the data set on C. neoformans isolates (C. neoformans DUMC 118.00 (FLC-resistant)) it was 0.25 µg/mL (≈ 0.271 µM); against C. neoformans isolates (C. neoformans DUMC 158.03 (FLC-resistant)), 1 µg/mL (≈ 1.08 µM); with C. neoformans isolates (C. neoformans H99), 0.25 µg/mL (≈ 0.271 µM); against C. neoformans isolates (C. neoformans MYA-4564), 0.25 µg/mL (≈ 0.271 µM). In addition, the MIC against C. neoformans isolates (C. neoformans MYA-4565) is 0.125 µg/mL (≈ 0.135 µM); against C. neoformans isolates (C. neoformans MYA-4566), 0.25 µg/mL (≈ 0.271 µM); against C. neoformans isolates (C. neoformans MYA-4567) it was 0.25 µg/mL (≈ 0.271 µM); against C. gattii isolates (C. gattii MYA-4093), 0.25 µg/mL (≈ 0.271 µM); against C. gattii isolates (C. gattii MYA-4094) it was 0.25 µg/mL (≈ 0.271 µM); against C. gattii isolates (C. gattii MYA-4560) it was 0.063 µg/mL (≈ 0.0682 µM). The MIC in the data set with C. gattii isolates (C. gattii MYA-4561) amounted to 0.25 µg/mL (≈ 0.271 µM); against C. gattii isolates (C. gattii MYA-4562), 0.25 µg/mL (≈ 0.271 µM); against C. gattii isolates (C. gattii MYA-4563) it was 0.125 µg/mL (≈ 0.135 µM); against C. gattii isolates (C. gattii MYA-4877) it was 0.25 µg/mL (≈ 0.271 µM); against C. gattii isolates (C. gattii RSA-MW-3615 (FLC-resistant)) it was 0.25 µg/mL (≈ 0.271 µM). In addition, in data set [2] (geometric mean over the 18 isolates of C. neoformans and C. gattii), the “MIC GEOMEAN” value came to 0.215 µg/mL (≈ 0.233 µM). The MIC90 in data set [2] came out at 0.25 µg/mL (≈ 0.271 µM). For the same molecule, the “reduction of log10 CFU/g lung vs untreated control, delayed treatment” value with C. neoformans strain H99 [3] is 4.02 log10 CFU/g. Also, in data set [4], the “MIC90 versus C. neoformans, US isolates” value is 2 µg/mL (≈ 2.16 µM).

On to `Nc1ncccc1-c1cc(Cc2ccc(OCc3ccccc3)cc2)no1`, for which the MIC in the data set on C. neoformans H99 [1] was 0.031 µg/mL (≈ 0.0867 µM). Also, the “fold improved anti-C. neoformans H99 activity compared to Compound 2” value in the data set with C. neoformans H99 [1] (from MIC values) is listed as 8 fold. Further, the “FICI in combination with FLC” value in the data set on C. neoformans H99 [5] came out at 0.37.

For `C[C@@H](c1nc(-c2ccc(C#N)cc2)cs1)[C@](O)(Cn1cncn1)c1cc(F)ccc1F` [isavuconazole], the “MIC90 versus 46 strains of C. neoformans” value in data set [6] was 0.06 µg/mL.

In the case of `Nc1ncccc1-c1cc(Cc2ccc(COc3ccccn3)cc2)no1` [Compound 2], the “MIC C. neoformans H99” value in the data set with C. neoformans H99 [1] came out at 0.25 µg/mL (≈ 0.698 µM). Besides, the “MIC C. gattii WM276” value in the data set on C. gattii WM276 was determined as 0.125 µg/mL (≈ 0.349 µM). In addition, in the data set with C. albicans 90028, the “MIC or MEC C. albicans 90028” value stood at 0.008 µg/mL (≈ 0.0223 µM). In addition, the “MIC or MEC A. fumigatus MYA3626” value with A. fumigatus MYA3626 amounted to 0.008 µg/mL (≈ 0.0223 µM). In [2], this molecule showed an MIC90 of 0.5 µg/mL (≈ 1.4 µM). Further, in the data set with C. neoformans H99 [5], the “FICI in combination with FLC” value is 0.37. Also, the “strains with synergy with FLC” value in [7] is recorded as 9 of 10; in the data set on strains of C. albicans, 2 of 20. In [8], the half-life in mice was 1.40 to 2.75 h.

Take `OC(Cn1cncn1)(Cn1cncn1)c1ccc(F)cc1F` [FUC]: the “MIC90 versus 46 strains of C. neoformans” value in [6] is 4 µg/mL.

Consider `OC(Cn1cncn1)(Cn1cncn1)c1ccc(F)cc1F` [fluconazole, Fluconazole], for which, in the data set on C. neoformans strain H99 [9], the “reduction in brain fungal burden vs control group, monotherapy” value is listed as 1.04 log10 CFU/g.

On to `OC(Cn1cncn1)(Cn1cncn1)c1ccc(F)cc1F` [FLC, fluconazole], for which the MIC in the data set with C. neoformans H99 [1] came out at 2 µg/mL (≈ 6.53 µM); in the data set with C. gattii WM276 (Cryptococcus gattii, WM276), 1 µg/mL (≈ 3.27 µM). Besides, the “reduction in lung fungal burden vs untreated control, monotherapy” value in the data set with C. neoformans strain H99 [9] stood at 1.30 log10 CFU/g.

These data come from US11512079B2, “Heterocycle substituted pyridine derivative antifungal agents” (Amplyx Pharmaceuticals, Inc., priority 2017, dated 2022).
